In patent US8969573B2, “Compounds for the inhibition of cellular proliferation” (President and Fellows of Harvard College, priority 2010, dated 2015):
Where two headings read alike, the source gives them in different places.

What was measured:
eIF4E/eIF4G interaction = eIF4E/eIF4G interaction (Homo sapiens, UniProt P06730); experiment: Fluorescent polarization assay; format: binding; conditions: FITC eIF4G peptide and recombinant eIF4E, ratio to Z (4EGI-1 = 1)
Experimental: The difference between the two measurement yields net polarization which is considered full signal of the assay (100% control). […] The activity of compound at each concentration is determined by comparing the fluorescent polarization (FP) signal in the presence of compound to the control (no compound) value. The percent inhibition is =100-((FP compound/FP control)*100).

CRL2813 human melanoma = experiment: SRB assay (inhibition of cell proliferation); format: cell-based
Description: (§1) A sulfur rhodamine B (SRB) assay was used to determine the extent of inhibition of cell proliferation as a measure of the anti-cancer activity of compounds of the present disclosure. The reagent SRB binds to cellular proteins and absorbs light proportionally to the cellular protein content, which is a surrogate marker for the number of cells. According to aspects of the present disclosure, the assay can be used to with any cancer cell line including breast cancer cell lines, prostate cancer cell lines, melanoma cell lines, lung cancer cell lines or any other cell lines of the cancers described herein.
(§2) The following protocol was used to determine the growth characteristics of certain cell lines CRL2351 human breast cancer and CRL2813 human melanoma from which cell lines having doubling times less than 48 hours were selected for growth inhibition experiments. […] The following materials were used in addition to the cancel cell lines: complete (5% fetal calf serum added) tissue culture media, 96-well tissue culture plates, Sulforhodamine B dye (SRB, 0.57% w/w), […] (TCA, 10%), acetic acid glacial (1%) and 10 mM Tris base. The cells were prepared and plated. Cancer cells were grown to 80% confluency in an incubator. The cells were trypsinized per standard protocol or as needed for each cell line. The trypsin was neutralized, cells dissociated and counted. Each cell line was plated at a density of 500, 1000 and 3000 cells per well (six wells each) in five separate plates. The cells were then returned to the incubator. One plate was then removed each day starting day one after plating. 100 μl of 10% TCA was then added and the cells were fixed at 4° C. until all the cells were fixed. […] The cell growth for vehicle treatment is considered to be 100%. The optical density was then measured and plotted for each starting cell number and cell line against time. The percent cell growth inhibition was calculated as 100 minus the % of control cell growth. The % of control cell growth=((mean OD sample−Mean OD day 0)/(mean OD vehicle−Mean OD day 0))*100.

[1] = system: CRL2351 human breast cancer; experiment: SRB assay (inhibition of cell proliferation); format: cell-based; conditions: CRL2351 human breast cancer cells
Description: as §1, §2

[2] = Homo sapiens, CRL2813, CRL2813 human melanoma cells, summary table, read-out: IC50 [μM} CRL2813
[3] = Homo sapiens, summary table, read-out: IC50 [μM} CRL2351
[4] = Homo sapiens, CRL2813, CRL2813 human melanoma cells, Tables 1, 4, 5, read-out: SRB-IC50 (μM) 2813
[5] = Homo sapiens, Tables 1, 4, 5, read-out: SRB-IC50 (μM) 2351
[6] = CRL2813 human melanoma cells, summary table, read-out: IC50 [μM} CRL2813
[7] = summary table, read-out: IC50 [μM} CRL2351

Sequence of eIF4E/eIF4G interaction (P06730 whole entry): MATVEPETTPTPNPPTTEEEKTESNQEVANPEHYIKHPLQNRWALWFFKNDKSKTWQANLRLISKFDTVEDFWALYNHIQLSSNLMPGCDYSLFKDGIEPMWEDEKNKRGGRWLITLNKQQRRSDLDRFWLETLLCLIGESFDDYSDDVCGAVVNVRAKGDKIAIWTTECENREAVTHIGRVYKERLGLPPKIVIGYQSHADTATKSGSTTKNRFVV

Compound | Fp (ratio to Z) (eIF4E/eIF4G interaction) | IC50 (CRL2813 human melanoma; [2]) | IC50 [1, 3] | IC50 (CRL2813 human melanoma; [4]) | IC50 [1, 5] | IC50 (CRL2813 human melanoma; [6]) | IC50 [1, 7]
Cc1ccc(-c2nc(NN=C(Cc3ccccc3[N+](=O)[O-])C(=O)O)sc2-c2ccc(Cl)c(Cl)c2)cc1 [KY-365A22-B3] | 0.85 | 3.3 µM | 3.2 µM | – | – | – | –
COc1ccc(-c2sc(N/N=C(/Cc3ccccc3[N+](=O)[O-])C(=O)O)nc2-c2ccc(OC(C)C)cc2)cc1 [KY-599S] | 1.3 | 3 µM | 8.7 µM | – | – | – | –
[N-]=[N+]=NC/C(=N\Nc1nc(-c2ccc(Cl)c(Cl)c2)cs1)C(=O)O [KY-757-p, (E)-3-azido-2-(2-(4-(3,4-dichlorophenyl)thiazol-2-yl)hydrazono) propanoic acid] | 1 | > 20 µM | > 20 µM | – | – | – | –
[N-]=[N+]=NCCCCCOc1ccc(-c2csc(N/N=C(/Cc3ccccc3[N+](=O)[O-])C(=O)O)n2)cc1 [KH-168S] | 1.29 | 16 µM | > 20 µM | 16 µM | – | – | –
[N-]=[N+]=NCCOc1ccc(-c2csc(N/N=C(/Cc3ccccc3[N+](=O)[O-])C(=O)O)n2)cc1 [KH-166] | 0.80 | 9 µM | 5 µM | 9 µM | 5 µM | – | –
COc1ccc(-c2sc(N/N=C(/Cc3ccccc3[N+](=O)[O-])C(=O)O)nc2-c2ccc(C3CCCCC3)cc2)cc1 [KY-612SF] | 1 | – | – | – | – | 0.1 µM | –
COc1ccc(-c2nc(NN=C(Cc3ccccc3[N+](=O)[O-])C(=O)O)sc2-c2ccc(Cl)cc2)cc1 [KY-355PR] | 1.1 | 3 ± 0.18 µM | > 20 µM | – | – | – | –
COc1ccc(-c2sc(N/N=C(/Cc3ccccc3[N+](=O)[O-])C(=O)O)nc2-c2ccc(C3CCCCC3)cc2)cc1 [KY-612S] | 1.8 | – | 11 µM | – | – | 0.3 µM | –
O=C(O)/C(Cc1ccccc1[N+](=O)[O-])=N\Nc1nc(-c2ccc(OCCCCCBr)cc2)cs1 [KH-148I] | 1.50 | 0.9 µM | – | – | – | – | –
COc1ccc(-c2sc(N/N=C(\Cc3ccccc3[N+](=O)[O-])C(=O)O)nc2-c2ccc(SC)cc2)cc1 [KY-611-pri-S] | 0.62 | 6.2 µM | 15.5 µM | – | – | – | –
[N-]=[N+]=NCCCOc1ccccc1-c1csc(N/N=C(/Cc2ccccc2[N+](=O)[O-])C(=O)O)n1 [KH-170] | 0.92 | 14.5 µM | 0.8 µM | 16.5 µM | 0.8 µM | – | –
O=C(O)c1nn(-c2nc(-c3ccccc3)cs2)c2ccc([N+](=O)[O-])cc12 [RYF-292] | 0.6 | 2.5 µM | 9 µM | – | – | – | –
COc1ccc(-c2nc(N/N=C(\Cc3ccccc3[N+](=O)[O-])C(=O)O)sc2-c2ccc(-c3ccccc3)cc2)cc1 [KY-435-S] | 2 | – | – | – | – | < 0.54 µM | < 0.54 µM
COc1ccc(-c2nc(NN=C(Cc3ccccc3[N+](=O)[O-])C(=O)O)sc2-c2ccc(-n3cc(CCCO)nn3)cc2)cc1 [KY-447] | 1.5 | 17 ± 1.29 µM | > 20 µM | – | – | – | –
O=C(O)C(Cc1ccccc1[N+](=O)[O-])=NNc1nc(-c2cc(Br)cc(Br)c2O)cs1 [KH-102BIIs] | 0.69 | – | – | – | – | 20.5 µM | 18 µM
O=C(O)/C(=N/Nc1nc(-c2ccc(Cl)c(Cl)c2)cs1)c1cccc([N+](=O)[O-])c1 [KY-788-E, (E)-2-(2-(4-(3,4-dichlorophenyl)thiazol-2-yl)hydrazono)-2-(3-nitrophenyl)acetic acid] | 1.4 | 7 µM | – | – | – | – | 18 µM

Compound | Fp (ratio to Z) (eIF4E/eIF4G interaction) | IC50 (CRL2813 human melanoma; [2]) | IC50 [1, 3] | IC50 (CRL2813 human melanoma; [4]) | IC50 [1, 5] | IC50 (CRL2813 human melanoma; [6]) | IC50 [1, 7]
COc1ccc(-c2nc(NN=C(Cc3ccccc3[N+](=O)[O-])C(=O)O)sc2-c2ccc(OC)cc2)cc1 [KY-323A] | 0.67 | – | – | – | – | 1 µM | 0.6 µM
COc1ccc(-c2sc(NN=C(Cc3ccccc3[N+](=O)[O-])C(=O)O)nc2-c2ccc(OC)c(OC)c2)cc1 [KY-343PR] | 1 | > 20 µM | > 20 µM | – | – | – | –
O=C(O)/C(Cc1ccc([N+](=O)[O-])cc1)=N\Nc1nc(-c2ccc(Cl)c(Cl)c2)cs1 [KY-755-p] | 1 | 5 µM | 15 µM | – | – | – | –
O=C(O)[C@@H](Cc1cccc([N+](=O)[O-])c1)Nc1nc(-c2ccc(Cl)c(Cl)c2)cs1 [KY-365] | 0.82 | – | 3 µM | – | – | – | –
CCCc1sc(N/N=C(/Cc2ccccc2[N+](=O)[O-])C(=O)O)nc1-c1ccc(OC)cc1 [KY-582S] | 0.9 | 11.6 µM | 13.2 µM | – | – | – | –
COc1ccc(-c2sc(N/N=C(/Cc3ccccc3[N+](=O)[O-])C(=O)O)nc2-c2ccc(-c3ccccc3)cc2)cc1 [KY-577S, 2-{[4-Biphenyl-4-yl-5-(4-methoxy-phenyl)-thiazol-2-yl]-hydrazono}-3-(2-nitro-phenyl)-propionic acid] | 1 | – | – | – | – | 3.5 µM | 11.7 µM
COc1cc(-c2nc(NN=C(Cc3ccccc3[N+](=O)[O-])C(=O)O)sc2-c2ccc(Cl)c(Cl)c2)cc(OC)c1OC [KY-369S] | 0.75 | 2 ± 0.19 µM | 0.6 ± 0.02 µM | – | – | – | –
COc1ccc(-c2nc(N/N=C(\Cc3ccccc3[N+](=O)[O-])C(=O)O)sc2-c2ccc(I)cc2)cc1 [KY-613S] | 1.1 | 2.7 µM | 9.5 µM | – | – | – | –
O=C(O)/C(=N\Nc1nc(-c2ccc(Cl)c(Cl)c2)cs1)c1c[nH]c2ccccc12 [KY-689, {[4-(3,4-Dichloro-phenyl)-thiazol-2-yl]-hydrazono}-(1H-indol-3-yl)-acetic acid] | 4 | > 20 µM | > 20 µM | – | – | – | –
COc1ccc(-c2nc(NN=C(Cc3ccccc3[N+](=O)[O-])C(=O)O)sc2-c2ccc(-n3cc(-c4ccc(N)cc4)nn3)cc2)cc1 [KY-449] | 2.5 | 16 ± 1.8 µM | 17 µM | – | – | – | –
COc1ccc(-c2csc(NN=C(Cc3ccccc3[N+](=O)[O-])C(=O)O)n2)cc1 [EK-B2] | 0.86 | 11 µM | 7 µM | – | – | – | –
O=C(O)C(Cc1ccccc1[N+](=O)[O-])=NNc1nc(-c2cc(Br)cc(Br)c2O)cs1 [KH-102BII] | 0.69 | > 20 µM | 9 µM | – | – | – | –
Br.CCN(CC)c1ccc(-c2csc(N/N=C(\Cc3ccccc3[N+](=O)[O-])C(=O)O)n2)cc1 [KY-615S] | 4 | 12.5 µM | – | – | – | – | > 20 µM
O=C(O)C(=NNc1nc(-c2ccc(Cl)c(Cl)c2)cs1)c1cccc([N+](=O)[O-])c1 (stereo in doubt) [KY-788-Z, (Z)-2-(2-(4-(3,4-dichlorophenyl)thiazol-2-yl)hydrazono)-2-(3-nitrophenyl)acetic acid] | 0.86 | – | > 20 µM | – | – | – | –
O=C(O)C(Cc1ccccc1[N+](=O)[O-])=NNc1nc(-c2ccc(OCCCCOc3ccc(Cl)cc3)cc2)cs1 [KH-336S] | 0.96 | – | – | – | – | – | –
